# Residue numbers refer to the chain shown, from its start. Entries after “also recorded” stand apart in the source; their conditions may differ. Like-named read-outs stand apart in the source and are kept apart here.
# B1: HMGB1: alarmin; highly purified HMGB-1 (protein, UniProt P09429 1-215, looked up)
# High mobility group protein B1: MGKGDPKKPRGKMSSYAFFVQTCREEHKKKHPDASVNFSEFSKKCSERWKTMSAKEKGKFEDMAKADKARYEREMKTYIPPKGETKKKFKDPNAPKRPPSAFFLFCSEYRPKIKGEHPGLSIGDVAKKLGEMWNNTAADDKQPYEKKAAKLKEKYEKDIAAYRAKGKPDAAKKGVVKAEKSKKKKEEEEDEEDEEDEEEEEDEEDEDEEEDDDDE
# B2: rmHMGB1: exogenous alarmin rmHMGB1 added locally at the fracture site (protein, UniProt P63158 1-215, looked up)
# High mobility group protein B1: B1 High mobility group protein B1 with E189D, D202E
# B3: S100A9: alarmin (protein, UniProt P06702 1-114, looked up)
# Protein S100-A9: MTCKMSQLERNIETIINTFHQYSVKLGHPDTLNQGEFKELVRKDLQNFLKKENKNEKVIEHIMEDLDTNADKQLSFEEFIMLMARLTWASHEKMHEGDEGPGHHHKPGLGEGTP
# B4: S100A8/9: alarmin (protein, UniProt P05109 1-93; P06702 1-114, looked up)
# Protein S100-A8: MLTELEKALNSIIDVYHKYSLIKGNFHAVYRDDLKKLLETECPQYIRKKGADVWFKELDINTDGAVNFQEFLILVIKMGVAAHKKSHEESHKE
# Protein S100-A9: B3 Protein S100-A9
# B5: recombinant murine IL-10: an anti-inflammatory cytokine (protein, UniProt P18893 19-178, looked up)
# Interleukin-10: SRGQYSREDNNCTHFPVGQSHMLLELRTAFSQVKTFFQTKDQLDNILLTDSLMQDFKGYLGCQALSEMIQFYLVEVMPQAEKHGPEIKEHLNSLGEKLKTLRMRLRRCHRFLPCENKSKAVEQVKSDFNKLQDQGVYKAMNEFDIFINCIEAYMMIKMKS
# B6: murine S100A8: murine alarmin S100A8 used on mouse bone marrow cells (protein, UniProt P27005 2-89, looked up)
# Protein S100-A8: PSELEKALSNLIDVYHNYSNIQGNHHALYKNDFKKMVTTECPQFVQNINIENLFRELDINSDNAINFEEFLAMVIKVGVASHKDSHKE
# What was measured:
# [1] = test system: human muscle-derived stromal cells; conditions: cited from earlier work
# [2] = test system: intramuscular bone-inducing implant; conditions: daily intra-peritoneal administration; cited from earlier work
# [3] = human, in vivo, cited from earlier work
# tibial fracture [4] = experiment: murine tibial fracture model: callus mineralization (microCT) and histology after local administration at fracture site; type: in vivo, mouse
# osteoporotic fracture = osteoporotic fracture repair in ovariectomised mice, callus mineralization by microCT; type: in vivo, mouse; conditions: for percentage callus mineralization / fracture healing: day 14, 20 μL rhTNF-α 50 ng/ml immediately post fracture and 1 day later, vs PBS
# Method: FIG. 6. Addition of exogenous TNF-α accelerates osteoporotic fracture repair in vivo. 20 μL of rhTNF-α at 50 ng/ml was injected at the fracture site immediately post fracture and 1 day later. Osteoporosis was induced by ovariectomising mice 4 weeks prior to surgery. (A). At day 14, mice were harvested and limbs scanned by microCT in a blinded fashion. […] At day 28 post fracture the percentage mineralised callus volume in the three groups (normal, those that had undergone oophorectomy and oophrectomised animals treated with TNF-α) were similar. […] (B).
# We have investigated the effect of adding recombinant human TNF-α at the fracture site in mice rendered osteoporotic by oophorectomy 4 weeks previously.
# tibial fracture [5] = experiment: murine tibial fracture model: callus mineralization (microCT) and histology after local administration at fracture site; type: in vivo, mouse; conditions: for fracture healing / callus mineralization: local, approx. 1 ng or 50 ng/kg (50 ng/ml, 20 microlitres PBS) at time of fracture and 24 hr later, day 28; for fracture healing / percentage callus mineralization: exogenous alarmin at fracture site days 0 and 1 (rmHMGB1 20 μL at 50 ng/ml), day 28 microCT
# Method: Percentage callus mineralization was determined from the fracture site to 1 mm proximally (mean+/−SEM). FIG. 5. Dose response of exogenous TNF-α in vivo. 20 μL of PBS with rhTNF-α at the corresponding dose was injected at the fracture site at days 0 and 1 in C57BI/6 mice. At day 28, mice were harvested and limbs scanned by microCT in a blinded fashion. Percentage callus mineralization was determined from the fracture site to 1 mm proximally (threshold density of 350 mg/cm^3). * p<0.05, ** p<0.01. FIG. 7A. […] Percentage callus mineralization was determined from the fracture site to 1 mm proximally (mean+/−SEM). FIG. 18. […] C57BI6 mice were subjected to fracture model with addition of 20 μL of rmHMGB1 at 50 ng/ml at the fracture site at days 0 and 1 compared to controls. Addition of exogenous S100A8 or S100A9 or S100A8/9 had no effect, possibly because the fracture environment may already contain optimal amounts of S100 A8 or A9 proteins. All mice were harvested at day 28 and limbs scanned by microCT in a blinded fashion. Percentage callus mineralization was determined from the fracture site to 1 mm proximally (mean+/−SEM). […] Inflammation plays a vital role in early fracture repair^11,12. In murine models, TNF-α, IL-1 and IL-6 are expressed at the fracture site within 24 hours of injury^13,14. Biphasic expression of TNF-α and IL-1β appears to be linked to the initiation of fracture repair and later to endochondral maturation^14,15. In our murine model, callus mineralization at day 28 was enhanced when TNF-α, at a concentration of 50 ng/kg was injected locally following injury (day 0) and 24 hours later.
# rib fracture = conditions: cited from earlier work
# PBMCs = experiment: TNF-α production by PBMCs (ELISA, 14 hours); type: cell-based, human; conditions: for TNF-α production by PBMCs: PBMCs 1*10^5/ml, 10% FCS, alarmin at indicated doses
# Method: FIG. 10. […] (A) PBMCs at 1*10^5/ml were incubated in 10% fetal calf serum (FCS) with S100 A8 at indicated doses. […] (B) PBMCs at 1*10^5/ml were incubated in 10% FCS with S100 A8 at 0.5 μg/ml with the addition of either antibody to TLR4, TLR2 or isotype controls (not shown), or sRAGE over 14 hours. TNF-α levels were determined by ELISA.
# FIG. 12. […] PBMCs at 1*10^5/ml were incubated in 10% FCS with S100 A8, S100 A9 or S100 A12 at the indicated doses over 14 hours. TNF-α levels were determined by ELISA.
# FIG. 17. […] PBMCs at 1*10^5/ml were incubated in 10% FCS with HMGB1 or LPS at the indicated doses over 14 hours; TNF-α levels were determined by ELISA.
# bone marrow cells = experiment: TNF-α production by bone marrow cells from wild type, TLR-4 and MyD88 knockout mice; type: cell-based, mouse; conditions: WT, TLR-4 and MyD88 knockout bone marrow cells
# Text: FIG. 11. TNF-α production by bone marrow cells from wild type (WT), TLR-4 and MyD88 knockout mice treated with murine S100A8.
molecule,measurement,setting,value
IL-1β: pro-inflammatory cytokine with some osteogenic activity in vitro,bone nodule formation in vitro,"[1]; cytokine alone, human specimens",does not promote bone nodule formation
same,alkaline phosphatase production,[1]; human muscle-derived stromal cells,increased alkaline phosphatase production
TNF-α,bone formation around implant,[2],inhibited bone formation
same,"adverse effect, highest doses administered repeatedly",[3]; sc,minor local reactions
same,"adverse effect, highest doses administered repeatedly",[3],clinically insignificant thrombocytopaenia
same,single doses found safe,[3],up to 400 micrograms
same,effect at 10 fold increase beyond optimal range,[1]; 10 ng/ml,significant diminution in effect
same,migration and osteogenic differentiation of MDSC,[1],can migrate and differentiate upon stimulation; also recorded: clear concentration dependency; also recorded: accelerates bone formation within a narrow therapeutic window and is inhibitory at high concentrations
same,optimal in vitro dose,[1],0.1 to 1 ng/mL
same,histology of tibial fracture,"tibial fracture [4]; 14 days post injury, local TNF-α 50 ng/kg body weight (1 ng/ml) in PBS",complete bridging of the fracture site by hard callus (bone) and remodelling of the fracture callus
same,percentage callus mineralization / fracture healing,osteoporotic fracture,significantly greater
same,percentage callus mineralization / fracture healing,osteoporotic fracture; listed as recombinant human TNF-α,significantly accelerated fracture healing
same,percentage mineralised callus volume,"osteoporotic fracture; day 28 post fracture, normal vs oophorectomy vs oophorectomy + TNF-α",similar
same,3D reconstructions of fracture site,osteoporotic fracture; rhTNF-α group vs PBS control,bridging of the fracture site with callus and ossification of the cartilaginous intermediary as well as remodelling of the ossified callus
same,callus mineralization at day 28,"tibial fracture [5]; ""high"" dose of 5-100 μg/kg",significantly less callus mineralization
same,callus mineralization at day 28,"tibial fracture [5]; ""low"" dose of 50 pg/kg",indistinguishable from the PBS only control
same,fracture healing compared to PBS control,tibial fracture [5]; doses of 10 pg to 1 ng at fracture site (FIG. 5),significantly accelerated healing
same,fracture healing / callus mineralization,tibial fracture [5],effective in promoting bone formation and accelerating fracture healing; also recorded: enhanced; also recorded: significantly accelerated healing of the fracture
same,fracture healing / callus mineralization,tibial fracture [5]; listed as rhTNF-α,accelerate callus mineralization
same,fracture healing,rib fracture; 40 μg/kg/day,(non significant) improvement in fracture healing
same,fracture healing,rib fracture; daily intra-peritoneal 400 μg/kg,impaired healing
B1,"TNF-α production by PBMCs, HMGB1 with addition of LPS",PBMCs; HMGB1 and LPS at indicated doses,synergistic effect
same,TNF-α production by PBMCs,PBMCs,not pro-inflammatory in isolation in vitro
same,TNF-α production by PBMCs,PBMCs; listed as HMGB-1,did not lead to TNF-α production
same,fracture healing,"tibial fracture [5]; 1 mg/ml at fracture site at days 0 and 1, 28 days post fracture",significantly (p=0.02) accelerated healing
same,fracture healing / percentage callus mineralization,tibial fracture [5],accelerated healing; also recorded: accelerates fracture healing
B2,fracture healing / percentage callus mineralization,tibial fracture [5],accelerates fracture; also recorded: improves callus mineralisation
B3,TNF-α production by PBMCs,PBMCs,much lower effect than S100A8
same,TNF-α production by PBMCs,PBMCs; listed as S100 A9,much less potent than S100 A8
same,fracture healing / percentage callus mineralization,tibial fracture [5],no effect
B4,TNF-α production by PBMCs,PBMCs,no activity
same,fracture healing / percentage callus mineralization,tibial fracture [5],no effect
B5,fracture healing as percentage mineralized callus volume,"tibial fracture [4]; 14 days post fracture, administered at fracture site",inhibition of fracture healing
B6,receptor dependence of TNF-α production,bone marrow cells,largely dependent on TLR-4 receptor and absolutely dependent on MyD88

# — US20140056960A1, “Methods for Improving Fracture Healing and Bone Formation” (Imperial Innovations Limited, priority 2010, published 2014)
